The values that follow come from patent US20220153780A1, “SALT FORMS OF S-(N, N-DIETHYLCARBAMOYL)GLUTATHIONE” (Tonix Pharma Holdings Limited, priority 2019, published 2022).

Data set [1] concerns high alcohol-drinking-1 (HAD1) rats. Put plainly: 2-hour ethanol intake by adult male HAD1 rats after IP carbamathione. It is filed as in vivo. To be noted: IP 100, 200, 400 mg/kg, saline with 0.25% Tween 80 vehicle. The protocol: (§1) The efficacy of carbamathione in reducing ethanol intake of rats was assessed. Adult male alcohol-preferring rats (P rats) and high alcohol-drinking-1 (HAD1) rats (˜75 days of age at the start) were used in this study. These rats underwent an 8-week acquisition/acclimation period of concurrent free-choice access to 15% and 30% ethanol. Animals were initiated with 24-hour access, which was titrated down to 2 hours per day for 5 days (Monday-Friday)/week access. Ethanol access began at the beginning of the dark cycle (10:00 h) in a room maintained on a reverse dark-light cycle (10:00 h to 22:00 h lights out).
(§2) After the acquisition period, the animals underwent three weeks of testing. Four doses were tested: 0, 100, 200, and 400 mg/kg/day. Sterile isotonic (0.9% normal) saline with 0.25% Tween® 80 was used as the vehicle for all doses. Injection solutions were prepared approximately 1 hour prior to each administration.
(§3) The carbamathione solution was maintained at −20° C. until mixing the solutions each day. Adding the carboxyl-associated compound helped dissolve the carbamathione solid, which was pulverized by mortar and pestle with 50 μl Tween® 80, resulting in a pH of 3.5. […] Doses were calculated at 3 ml/kg to allow for injection volume of 1.5 ml per 500 g rat. […]
(§4) Data were analyzed by Dose, by Test Day, and 2-way mixed ANOVAs on each rat line, followed by Dunnett t-test planned comparisons.

Data set [2] concerns alcohol-preferring rats (P rats). Description: 2-hour ethanol intake by adult male P rats after IP carbamathione. It is filed as in vivo. The procedure:
as §1, §2, §3, §4

Data set [3] can be described thus: Visual solubility of free carbamathione in water and common organic solvents. The format is physicochemical. The procedure:
Initially, the solubility of free carbamathione was evaluated in water and in common organic solvents. The common organic solvents tested included dichloromethane (DCM), methanol, ethyl acetate, ethanol, acetonitrile, acetone, 2-propanol, and N,N-dimethylformamide.
For each solvent the solubility of carbamathione was assessed by weighing out 50 mg of carbamathione into a stoppered tube followed by the addition of 0.05 mL of the test solvent to the tube. The mixture underwent vigorous shaking for 1 minute, and was placed in a constant temperature device for 15 minutes at 25.0±0.5° C. If the carbamathione was not completely dissolved, vigorous shaking was repeated for 1 minute and then placed in a constant temperature device for an additional 15 minutes. If the carbamathione was not fully dissolved, additional solvent was added portion-wise until dissolution of carbamathione was observed. If complete dissolution was not observed, the solution was heated until the boiling point under stirring to verify the solubility at high temperature. The solvents were classified according to the visual solubility determined into the groups described in Table 6.

Turning to `CCN(CC)C(=O)SCC(NC(=O)CCC(N)C(=O)O)C(=O)NCC(=O)O` (stereo not drawn) [carbamathione, S—(N,N-diethylcarbamoyl)glutathione], the “effect on 2-hour ethanol intake” value is given as “no effect” in data set [1] and “modest positive effect” in data set [2] (IP 100, 200, 400 mg/kg, saline with 0.25% Tween 80 vehicle). For the same molecule, the “2 h ethanol intake, Dunnett's t-test for main effect of dose” value in data set [2] (highest dose (400 mg/kg/day IP)) is “significant effect”. Besides, the “Solubility at HT” value in data set [3] (2-Propanol, heated until the boiling point) was “No”; in data set [3] (Acetone, heated until the boiling point) it was “No”; in data set [3] (Acetonitrile, heated until the boiling point) it was “No”; in data set [3] (Dichloromethane, heated until the boiling point), “No”; in data set [3] (Ethanol, heated until the boiling point), “No”; in data set [3] (Ethyl Acetate, heated until the boiling point), “No”. Besides, the “Solubility at HT” value is given as “No” in data set [3] (Methanol, heated until the boiling point); “No” in data set [3] (N,N-Dimethylformamide, heated until the boiling point); “No” in data set [3] (Tetrahydrofuran, heated until the boiling point); “Dissolved” in data set [3] (Water, heated until the boiling point (100° C.)). Moreover, in data set [3] (only at high temperature), the solubility in water result is given as “sparingly soluble”. Besides, the “solubility in all of the common organic solvents” value in data set [3] (visual solubility) is “very slightly soluble”.
